Measured values taken from ChEMBL document CHEMBL1158487, “Small molecule chloropyramine hydrochloride (C4) targets the binding site of focal adhesion kinase and vascular endothelial growth factor receptor 3 and suppresses breast cancer growth in vivo” (J Med Chem, 2009).

Tested on: BT-474
Assay: Antitumor activity against human BT474 cells xenografted in nude-foxn1nu mouse assessed as reduction in tumor growth at 3 mg/kg after 14 days relative to control
Type: functional
Parameters: scale not given: the % may be the effect or the level left

COc1cccc2c1C(=O)c1c(O)c3c(c(O)c1C2=O)C[C@@](O)(C(=O)CO)C[C@@H]3O[C@H]1C[C@H](N)[C@H](O)[C@H](C)O1 [DOXORUBICIN]
Activity: 60%
